Paper PMC7391726, “Fatty acid mimetic PBI-4547 restores metabolic homeostasis via GPR84 in mice with non-alcoholic fatty liver disease” (Scientific Reports, 2020)
Where two headings read alike, the source gives them in different places.

Biological target: T1, GPR40 (Homo sapiens, UniProt O14842)
T1 construct: expressed in transfected cells; host or cells: HEK293
Experiment: BRET Gαq / Gαi2 activation biosensors in HEK293 cells transfected with GPR40
Format: cell-based
Protocol: Figure 1 PBI-4547 binding and activity on GPR84, GPR40, GPR120, and PPAR receptors. (A) Chemical structure of PBI-4547. (B) Gi pathway activation was monitored in HEK293 cells transfected with GPR84 and the Gαi2 activation biosensor. Cells were co-treated with […] sodium decanoate and increasing concentrations of PBI-4547, and BRET variation compared with vehicle was measured. (C) β-arrestin 2 recruitment to activated GPR120 receptor was monitored in HEK293 cells transfected with RLuc8-β-arrestin 2 and GPR120-GFP10. (D) Cells transfected with GPR40 and Gαq or Gαi2 activation biosensor were exposed to increasing concentrations of PBI-4547 or to 500 µM of sodium decanoate, and BRET variation compared with vehicle was measured. Cells were exposed to increasing concentrations of PBI-4547 or to 100 µM of GW9508, and BRET variation compared with vehicle was measured. […] Data in (B–D) are expressed as means ± SEM of 4–5 experiments; data in (E,F) are from a representative experiment from a total of 3 to 4 independent experiments. […]
BRET measurements in transiently transfected HEK293 cells were performed as previously described. Ligands were incubated with cells at room temperature for 10 min (G protein biosensors) or 25 min (β-arrestin/GPR120) before collecting BRET[2] readings between Rluc8 and GFP10.

T1 sequence (O14842 whole entry, species assumed): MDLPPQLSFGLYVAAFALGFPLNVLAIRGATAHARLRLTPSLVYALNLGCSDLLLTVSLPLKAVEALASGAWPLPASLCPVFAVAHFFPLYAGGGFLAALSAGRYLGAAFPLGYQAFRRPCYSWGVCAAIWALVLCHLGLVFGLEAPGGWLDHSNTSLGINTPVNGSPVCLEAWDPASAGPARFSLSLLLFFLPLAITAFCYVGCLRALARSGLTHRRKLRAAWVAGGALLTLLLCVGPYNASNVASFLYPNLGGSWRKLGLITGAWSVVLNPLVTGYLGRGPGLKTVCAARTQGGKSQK

CCCCCc1cc(CCCCC)cc(CC(=O)[O-])c1.[Na+] [PBI-4547, 2-[3,5-dipentylphenyl]acetate sodium salt]
EC50 (Gαi2 biosensor, read-out: EC50, GPR40 Gαi2 biosensor BRET signal decrease): 27 µM
EC50 (Gαq biosensor, read-out: EC50, GPR40 Gαq biosensor BRET signal decrease): 30 µM
